{
  "source": "patent US20110118134A1",
  "about": "“Biomarkers for insulin sensitizer drug response” (IKFE GmbH, priority 2008, published 2011)",
  "origin": "cited, not measured here",
  "tested_on": "MIF",
  "details": "six week treatment, eight non-diabetic patients with obesity",
  "data": [
    {"smiles": "CN(C)C(=N)N=C(N)N", "note": "[metformin]", "values": [
      {"measurement": "Plasma concentration of MIF and transcription of MIF mRNA in mononuclear cells", "value": "could be reduced"}
    ]}
  ]
}
